Measurements from publication PMC7115614 (European Journal of Medicinal Chemistry, 2019).

Assays:
[1] = test system: human embryonic lung (HEL) cells; settings: Table 5
hydroxy-HIF-1α (Pro564) = experiment: Western blot, hydroxy-HIF-1α in MCF-7 cells; assay type: cell-based, human; settings: 0.08 μM, 24 and 48 h
MCF-7 cells = experiment: Annexin V assay for apoptosis/necrosis detection; assay type: cell-based, human; settings: MCF-7, after 48 h, versus control
NOS2 = experiment: Western blot, NOS2 in MCF-7 cells; assay type: cell-based, human; settings: 0.08 μM, 24 and 48 h

Compound	Cytotoxicity Cell morphology (MCC) [1]	other results
O=c1[nH]c(=O)n([C@H]2C[C@H](O)[C@@H](CO)O2)cc1/C=C/Br [Brivudin, reference compound]	>300 μM	–
Nc1ccn(C[C@@H](CO)OCP(=O)(O)O)c(=O)n1.O.O [Cidofovir, reference compound]	>300 μM	–
C[Si](C)(C)c1cn(C[C@H](O)[C@H]2OC(=O)C(OCc3ccccc3)=C2OCc2ccccc2)nn1 [Compound 8b, 2,3-O,O-dibenzyl-6-deoxy-6-(4-trimethylsilyl-1,2,3-triazol-1-yl)-L-ascorbic acid]	100 μM	–
O=C1O[C@H]([C@@H](O)Cn2cc(C3CC3)nn2)C(OCc2ccccc2)=C1OCc1ccccc1 [Compound 8k, 2,3-O,O-dibenzyl-6-[4-cyclopropyl-1,2,3-triazol-1-yl]-6-deoxy-L-ascorbic acid]	100 μM	–
CCCCc1cn(C[C@H](O)[C@H]2OC(=O)C(OCc3ccccc3)=C2OCc2ccccc2)nn1 [Compound 8l, 2,3-O,O-dibenzyl-6-(4-butyl-1,2,3-triazol-1-yl)-6-deoxy-L-ascorbic acid]	20 μM	–
CCCCCCCCCCc1cn(C[C@H](O)[C@H]2OC(=O)C(OCc3ccccc3)=C2OCc2ccccc2)nn1 [Compound 8m, 2,3-O,O-dibenzyl-6-(4-decyl-1,2,3-triazol-1-yl)-6-deoxy-L-ascorbic acid]	20 μM	hydroxylated HIF-1α levels (hydroxy-HIF-1α (Pro564)): significant increase; increase in late apoptotic cell population (MCF-7 cells): 24.7%; increase of necrotic cell populations (MCF-7 cells): 7.92%; levels of NOS2 (NOS2): decreased levels
CC(C)(C)c1cn(C[C@H](O)[C@H]2OC(=O)C(OCc3ccccc3)=C2OCc2ccccc2)nn1 [Compound 8n, 2,3-O,O-dibenzyl-6-(4-tert-butyl-1,2,3-triazol-1-yl)-6-deoxy-L-ascorbic acid]	100 μM	–
O=C1O/C(=C\Cn2cc(-c3cc(F)cc(F)c3)nn2)C(OCc2ccccc2)=C1OCc1ccccc1 [Compound 10d]	100 μM	–
O=C1O/C(=C\Cn2cc(-c3ccc(Br)cc3)nn2)C(OCc2ccccc2)=C1OCc1ccccc1 [Compound 10e]	>100 μM	–
Cc1ccc(-c2cn(C/C=C3\OC(=O)C(OCc4ccccc4)=C3OCc3ccccc3)nn2)cc1 [Compound 10f]	20 μM	–
COc1ccc(-c2cn(C/C=C3\OC(=O)C(OCc4ccccc4)=C3OCc3ccccc3)nn2)cc1 [Compound 10g]	>100 μM	–
COc1ccccc1-c1cn(C/C=C2\OC(=O)C(OCc3ccccc3)=C2OCc2ccccc2)nn1 [Compound 10h]	100 μM	–
CC(C)(C)c1cn(C/C=C2\OC(=O)C(OCc3ccccc3)=C2OCc2ccccc2)nn1 [Compound 10n]	100 μM	–
O=C1O/C(=C\Cn2cc(CCO)nn2)C(OCc2ccccc2)=C1OCc1ccccc1 [Compound 10p]	>100 μM	–
